Laboratory results reported in patent US20240124460A1, “METHODS AND COMPOSITIONS FOR TARGETED PROTEIN DEGRADATION” (Ranok Therapeutics (Hangzhou) Co. Ltd., priority 2020, published 2024).

Columns and labels:
HSP90α protein = molecular target: T1, HSP90α protein (Homo sapiens, UniProt P07900); assay: HSP90α-binding FP (BODIPY) assay; details: FP competition with BODIPY-labeled RNK04010
T1 construct: purchased BPS Bioscience #50298
Outline: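 Fluorescence polarization measured competition with N-terminal human HSP90α, using either FITC-geldanamycin or BODIPY-labelled triazolone RNK04010 as tracer (5 nM final each). Compounds were tested in 2.5-fold dilutions from 20 μM to 5.2 nM, with incubation at 25 °C for 120 min (FITC) or 300 min (BODIPY).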

ERBB2 = ERBB2 (HER2) flow cytometry protein degradation assay in BT-474 cells; format: cell-based, human; details: DC50, BT-474 cells, 24 hr
Experimental: To analyze total ERBB2 expression by flow cytometry, cells were detached with trypsin, washed, counted and treated with 10 μl/10^6 cells PE-conjugated, anti-ERBB2 monoclonal antibody (R&D Systems, #FAB1129P) for 30 min at 25° C. in dark. Cells were then washed, resuspended in 200 μl 1% paraformaldehyde and analyzed by flow cytometry.
% Inhibition=100−(D−B)/(S−B)*100%. • S: Fluorescence intensity of cells with antibody • D: Fluorescence intensity of compound-treated cells with antibody • B: Fluorescence intensity of cells without antibody

[1] = tested on: MV-4-11 human acute myeloid leukemia; assay: MV-4-11 CCK-8 proliferation assay; format: cell-based; details: Homo sapiens, MV4-11; MV-4-11 cells, 72 hr
Outline: (§1)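 Inhibition is derived from CCK-8 absorbance of compound-treated cells relative to DMSO-treated cells, after subtracting a cell-free medium/DMSO background. Test concentrations span 20 μM down to 1.02 nM in 3-fold steps, and lines are cultured as ATCC recommends.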

[2] = tested on: U-87 MG human glioblastoma; assay: U87 MG CCK-8 proliferation assay; format: cell-based; details: Homo sapiens, U-87 MG, 72 h, U-87 MG cells, read-out: U87MG CCK-8
Outline: as §1

MAPK7 = MAPK7 (Homo sapiens, UniProt Q13164); assay: MAPK7 Western blot protein degradation assay in U-87 MG cells; format: cell-based; design: U-87 MG human glioblastoma cells, which express MAPK7; endogenous in cells; host or cells: U-87 MG; details: 48 hr
Experimental: U-87 MG human glioblastoma cells were seeded in 6- or 12-well tissue culture plates, and after 1 hr, test compounds were added at various concentrations and incubated at 37° C./5% CO2 for 48 hr. Cells were then washed with cold PBS, aspirated and cold RIPA buffer containing a protease/phosphatase inhibitor cocktail was added to lyse cells. After centrifugation, the total protein concentrations of cell lysates were determined using the BCA protein assay. Samples were normalized for equivalent protein concentrations, 5×SDS-PAGE loading buffer added and denatured at 100° C. for 10 min. 20 μl of each sample/well was loaded on a SDS-PAGE gel and electrophoresed for 20 min at 80 V, then 120 V for 1.5 hr. Gels were then electroblotted to nitrocellulose membranes using a wet-transfer method at 250 mA for 2.5 hr. Membranes were incubated with blocking buffer for 1 hr and washed 3 times with TBST for 5 min. Membranes were then incubated with anti-MAPK7 (anti-ERK5; Cell Signaling Technology, #12950) and anti-3-Actin (Cell Signaling Technology, #3700) monoclonal antibodies diluted in blocking buffer at 4° C. overnight per the manufacturer's recommendations. After washing 3 times, blots were incubated with appropriately labeled secondary antibodies for 1 hr at room temperature and washed again. Fluorescence imaging and quantitation was performed using a LI-COR Odyssey. Results was analyzed using GraphPad Prism 7 software.

Chain of MAPK7 (Q13164 whole entry): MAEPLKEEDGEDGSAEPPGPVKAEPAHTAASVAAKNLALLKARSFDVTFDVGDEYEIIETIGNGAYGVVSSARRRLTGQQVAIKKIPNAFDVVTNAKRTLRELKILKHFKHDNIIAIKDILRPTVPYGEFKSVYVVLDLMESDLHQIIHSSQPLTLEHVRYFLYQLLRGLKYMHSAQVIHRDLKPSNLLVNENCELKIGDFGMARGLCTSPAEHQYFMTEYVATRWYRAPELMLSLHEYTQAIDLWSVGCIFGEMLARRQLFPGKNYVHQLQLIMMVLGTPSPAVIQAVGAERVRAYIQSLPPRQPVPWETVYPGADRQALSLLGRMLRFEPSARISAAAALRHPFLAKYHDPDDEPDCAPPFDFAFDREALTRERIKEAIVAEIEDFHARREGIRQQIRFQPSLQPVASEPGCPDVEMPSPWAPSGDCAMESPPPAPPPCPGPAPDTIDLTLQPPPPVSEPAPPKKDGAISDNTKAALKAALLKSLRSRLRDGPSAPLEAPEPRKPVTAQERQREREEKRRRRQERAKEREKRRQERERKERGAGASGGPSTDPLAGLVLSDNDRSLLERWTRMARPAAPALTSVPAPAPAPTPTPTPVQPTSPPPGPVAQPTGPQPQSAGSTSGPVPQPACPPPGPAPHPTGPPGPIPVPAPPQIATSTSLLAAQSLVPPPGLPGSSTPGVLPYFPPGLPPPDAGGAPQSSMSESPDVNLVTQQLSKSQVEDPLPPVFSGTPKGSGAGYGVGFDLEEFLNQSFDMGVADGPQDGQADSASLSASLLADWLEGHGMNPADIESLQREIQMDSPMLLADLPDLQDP

IC50 (HSP90α protein) [nM] | EC50 [1] [nM] | EC50 [2] [nM] | MAPK7 degradation (30 nM) (MAPK7) | MAPK7 degradation (100 nM) (MAPK7) | MAPK7 degradation (1000 nM) (MAPK7) | MAPK7 degradation (300 nM) (MAPK7) | SMILES | ERBB2 degradation (ERBB2)
100 to 1000 | < 100 | 100 to 1000 | C (< 33% degradation) | C (< 33% degradation) | A (>66% degradation) | – | CCOc1cc(N2CCC(C(=O)N3CCC(CN4CCN(Cc5ccc(-n6c(C(=O)NCC(F)(F)F)nnc6-c6cc(C)c(O)cc6O)cc5)CC4)CC3)CC2)ccc1Nc1ncc2c(n1)N(C)c1ccccc1C(=O)N2C [Compound 018, 5-(2,4-dihydroxy-5-methylphenyl)-4-(4-((4-((1-(1-(4-((5,11-dimethyl-6-oxo-6,11-dihydro-5H-benzo[e]pyrimido[5,4-b][1,4]diazepin-2-yl)amino)-3-ethoxyphenyl)piperidine-4-carbonyl)piperidin-4-yl)methyl)piperazin-1-yl)methyl)phenyl)-N-(2,2,2-trifluoroethyl)-4H-1,2,4-triazole-3-carboxamide] | B (DC50 = 100-1000 nM)
100 to 1000 | < 100 | > 1000 | C (< 33% degradation) | C (< 33% degradation) | A (>66% degradation) | B (33-66% degradation) | CCOc1cc(N2CCC(C(=O)NCc3ccc(-n4c(O)nnc4-c4cc(C(C)C)c(O)cc4O)cc3F)CC2)ccc1Nc1ncc2c(n1)N(C)c1ccccc1C(=O)N2C [Compound 036, N-(4-(3-(2,4-dihydroxy-5-isopropylphenyl)-5-hydroxy-4H-1,2,4-triazol-4-yl)-2-fluorobenzyl)-1-(4-((5,11-dimethyl-6-oxo-6,11-dihydro-5H-benzo[e]pyrimido[5,4-b][1,4]diazepin-2-yl)amino)-3-ethoxyphenyl)piperidine-4-carboxamide] | B (DC50 = 100-1000 nM)
– | – | – | C (< 33% degradation) | B (33-66% degradation) | A (>66% degradation) | A (>66% degradation) | CCOc1cc(N2CCC(C(=O)N3CCN(Cc4ccc(-n5c(O)nnc5-c5cc(C(C)C)c(O)cc5O)cc4)CC3)CC2)ccc1Nc1ncc2c(n1)N(C)c1ccccc1C(=O)N2C.Cl [Compound 043, 2-((4-(4-(4-(4-(3-(2,4-dihydroxy-5-isopropylphenyl)-5-hydroxy-4H-1,2,4-triazol-4-yl)benzyl)piperazine-1-carbonyl)piperidin-1-yl)-2-ethoxyphenyl)amino)-5,11-dimethyl-5,11-dihydro-6H-benzo[e]pyrimido[5,4-b][1,4]diazepin-6-one] | B (DC50 = 100-1000 nM)
< 100 | < 100 | < 100 | – | – | – | – | CCOc1cc(N2CCC(C(=O)N3CCC(CN4CCN(Cc5ccc(-n6c(C(=O)NC7CC7)nnc6-c6cc(CC)c(O)cc6O)cc5)CC4)CC3)CC2)ccc1Nc1ncc2c(n1)N(S(C)(=O)=O)c1ccccc1C(=O)N2C [Compound 075, N-cyclopropyl-4-(4-((4-((1-(1-(3-ethoxy-4-((5-methyl-11-(methylsulfonyl)-6-oxo-6,11-dihydro-5H-benzo[e]pyrimido[5,4-b][1,4]diazepin-2-yl)amino)phenyl)piperidine-4-carbonyl)piperidin-4-yl)methyl)piperazin-1-yl)methyl)phenyl)-5-(5-ethyl-2,4-dihydroxyphenyl)-4H-1,2,4-triazole-3-carboxamide] | B (DC50 = 100-1000 nM)
100 to 1000 | < 100 | 100 to 1000 | – | – | – | – | CCOc1cc(N2CCC(C(=O)NCCc3ccc(CN4CCC(Cc5ccc(-n6c(C(=O)NCC(F)(F)F)nnc6-c6cc(C(C)C)c(O)cc6O)cc5)CC4)cc3)CC2)ccc1Nc1ncc2c(n1)N(C)c1ccccc1C(=O)N2C [Compound 035, N-(4-((4-(4-(3-(2,4-dihydroxy-5-isopropylphenyl)-5-((2,2,2-trifluoroethyl)carbamoyl)-4H-1,2,4-triazol-4-yl)benzyl)piperidin-1-yl)methyl)phenethyl)-1-(4-((5,11-dimethyl-6-oxo-6,11-dihydro-5H-benzo[e]pyrimido[5,4-b][1,4]diazepin-2-yl)amino)-3-ethoxyphenyl)piperidine-4-carboxamide] | B (DC50 = 100-1000 nM)
> 1000 | > 1000 | > 1000 | – | – | – | – | CCOc1cc(N2CCC(C(=O)NCCOCCOc3ccc(Nc4ccc(-n5nc(C(F)(F)F)c6c5CC(C)(C)CC6=O)cc4C(N)=O)cc3)CC2)ccc1Nc1ncc2c(n1)N(C)c1ccccc1C(=O)N2C [Compound 065, N-(2-(2-(4-((2-carbamoyl-4-(6,6-dimethyl-4-oxo-3-(trifluoromethyl)-4,5,6,7-tetrahydro-1H-indazol-1-yl)phenyl)amino)phenoxy)ethoxy)ethyl)-1-(4-((5,11-dimethyl-6-oxo-6,11-dihydro-5H-benzo[e]pyrimido[5,4-b][1,4]diazepin-2-yl)amino)-3-ethoxyphenyl)piperidine-4-carboxamide] | C (DC50 > 1000 nM)
> 1000 | > 1000 | > 1000 | – | – | – | – | CCOc1cc(N2CCC(C(=O)N3CCC(CN4CCN(CCCOc5ccc(Nc6ccc(-n7nc(C(F)(F)F)c8c7CC(C)(C)CC8=O)cc6C(N)=O)cc5)CC4)CC3)CC2)ccc1Nc1ncc2c(n1)N(C)c1ccccc1C(=O)N2C [Compound 066] | C (DC50 > 1000 nM)
100 to 1000 | < 100 | > 1000 | – | – | – | – | CCOc1cc(N2CCC(C(=O)N3CCC(N4CCN(Cc5ccc(-n6c(O)nnc6-c6cc(C(C)C)c(O)cc6O)cc5C(F)(F)F)CC4)CC3)CC2)ccc1Nc1ncc2c(n1)N(C)c1ccccc1C(=O)N2C [Compound 038, 2-((4-(4-(4-(4-(4-(3-(2,4-dihydroxy-5-isopropylphenyl)-5-hydroxy-4H-1,2,4-triazol-4-yl)-2-(trifluoromethyl)benzyl)piperazin-1-yl)piperidine-1-carbonyl)piperidin-1-yl)-2-ethoxyphenyl)amino)-5,11-dimethyl-5,11-dihydro-6H-benzo[e]pyrimido[5,4-b][1,4]diazepin-6-one] | B (DC50 = 100-1000 nM)
> 1000 | > 1000 | > 1000 | – | – | – | – | CCOc1cc(N2CCC(C(=O)NCc3ccc(-n4c(O)nnc4-c4cc(CC)c(O)cc4O)cc3C(F)(F)F)CC2)ccc1Nc1ncc2c(n1)N(C)c1ccccc1C(=O)N2C [Compound 031, 1-(4-((5,11-dimethyl-6-oxo-6,11-dihydro-5H-benzo[e]pyrimido[5,4-b][1,4]diazepin-2-yl)amino)-3-ethoxyphenyl)-N-(4-(3-(5-ethyl-2,4-dihydroxyphenyl)-5-hydroxy-4H-1,2,4-triazol-4-yl)-2-(trifluoromethyl)benzyl)piperidine-4-carboxamide] | C (DC50 > 1000 nM)
100 to 1000 | 100 to 1000 | > 1000 | C (< 33% degradation) | C (< 33% degradation) | C (< 33% degradation) | C (< 33% degradation) | CCOc1cc(N2CCC(C(=O)N3CCC(CN4CCN(Cc5ccc(-n6c(O)nnc6-c6ccc(O)cc6O)cc5)CC4)CC3)CC2)ccc1Nc1ncc2c(n1)N(C)c1ccccc1C(=O)N2C [Compound 021, 2-((4-(4-(4-((4-(4-(3-(2,4-dihydroxyphenyl)-5-hydroxy-4H-1,2,4-triazol-4-yl)benzyl)piperazin-1-yl)methyl)piperidine-1-carbonyl)piperidin-1-yl)-2-ethoxyphenyl)amino)-5,11-dimethyl-5,11-dihydro-6H-benzo[e]pyrimido[5,4-b][1,4]diazepin-6-one] | –
